Test results published in ChEMBL document CHEMBL4346705, “(±)-trans-Dihydronarciclasine and (±)-trans-dihydrolycoricidine analogues modified in their ring A: Evaluation of their anticancer activity and a SAR study” (2019).

Experiments:
Type in all cases: functional
NCI-H226 = assay: Antiproliferative activity against human NCI-H226 cells assessed as cell viability at 10^-5 M incubated for 48 hrs by sulforhodamine B assay relative to control; settings: NCI-H226, 48 h, read-out: Activity
UACC-257 = assay: Antiproliferative activity against human UACC257 cells assessed as cell viability at 10^-5 M incubated for 48 hrs by sulforhodamine B assay relative to control; settings: UACC-257, 48 h, read-out: Activity
SK-MEL-28 = assay: Antiproliferative activity against human SK-MEL-28 cells assessed as cell viability at 10^-5 M incubated for 48 hrs by sulforhodamine B assay relative to control; settings: SK-MEL-28, 48 h, read-out: Activity
A549 = assay: Antiproliferative activity against human A549 cells assessed as cell viability at 10^-5 M incubated for 48 hrs by sulforhodamine B assay relative to control; settings: A549, 48 h, read-out: Activity
UACC-62 = assay: Antiproliferative activity against human UACC62 cells assessed as cell viability at 10^-5 M incubated for 48 hrs by sulforhodamine B assay relative to control; settings: UACC-62, 48 h, read-out: Activity
NCI-H460 = assay: Antiproliferative activity against human NCI-H460 cells assessed as cell viability at 10^-5 M incubated for 48 hrs by sulforhodamine B assay relative to control; settings: NCI-H460, 48 h, read-out: Activity
HCT-15 = assay: Antiproliferative activity against human HCT15 cells assessed as cell viability at 10^-5 M incubated for 48 hrs by sulforhodamine B assay relative to control; settings: HCT-15, 48 h, read-out: Activity
Malme-3M = assay: Antiproliferative activity against human MALME-3M cells assessed as cell viability at 10^-5 M incubated for 48 hrs by sulforhodamine B assay relative to control; settings: read-out: Activity
MDA-MB-468 = assay: Antiproliferative activity against human MDA-MB-468 cells assessed as cell viability at 10^-5 M incubated for 48 hrs by sulforhodamine B assay relative to control; settings: MDA-MB-468, 48 h, read-out: Activity
IGROV-1 = assay: Antiproliferative activity against human IGROV1 cells assessed as cell viability at 10^-5 M incubated for 48 hrs by sulforhodamine B assay relative to control; settings: IGROV-1, 48 h, read-out: Activity
HL-60(TB) = assay: Antiproliferative activity against human HL-60(TB) cells assessed as cell viability at 10^-5 M incubated for 48 hrs by sulforhodamine B assay relative to control; settings: HL-60, 48 h, read-out: Activity
MDA-MB-231 = assay: Antiproliferative activity against human MDA-MB-231 cells assessed as cell viability at 10^-5 M incubated for 48 hrs by sulforhodamine B assay relative to control; settings: MDA-MB-231, 48 h, read-out: Activity
SNB-19 = assay: Antiproliferative activity against human SNB19 cells assessed as cell viability at 10^-5 M incubated for 48 hrs by sulforhodamine B assay relative to control; settings: SNB-19, 48 h, read-out: Activity
RPMI-8226 = assay: Antiproliferative activity against human RPMI8226 cells assessed as cell viability at 10^-5 M incubated for 48 hrs by sulforhodamine B assay relative to control; settings: RPMI-8226, 48 h, read-out: Activity
786-0 = assay: Antiproliferative activity against human 786-0 cells assessed as cell viability at 10^-5 M incubated for 48 hrs by sulforhodamine B assay relative to control; settings: 786-0, 48 h, read-out: Activity
SR = assay: Antiproliferative activity against human SR cells assessed as cell viability at 10^-5 M incubated for 48 hrs by sulforhodamine B assay relative to control; settings: read-out: Activity
HCT-116 = assay: Antiproliferative activity against human HCT116 cells assessed as cell viability at 10^-5 M incubated for 48 hrs by sulforhodamine B assay relative to control; settings: HCT-116, 48 h, read-out: Activity
DU-145 = assay: Antiproliferative activity against human DU145 cells assessed as cell viability at 10^-5 M incubated for 48 hrs by sulforhodamine B assay relative to control; settings: DU-145, 48 h, read-out: Activity
EKVX = assay: Antiproliferative activity against human EKVX cells assessed as cell viability at 10^-5 M incubated for 48 hrs by sulforhodamine B assay relative to control; settings: read-out: Activity
BT-549 = assay: Antiproliferative activity against human BT549 cells assessed as cell viability at 10^-5 M incubated for 48 hrs by sulforhodamine B assay relative to control; settings: BT-549, 48 h, read-out: Activity
U-251 = assay: Antiproliferative activity against human U251 cells assessed as cell viability at 10^-5 M incubated for 48 hrs by sulforhodamine B assay relative to control; settings: U-251, 48 h, read-out: Activity
CCRF-CEM = assay: Antiproliferative activity against human CCRF-CEM cells assessed as cell viability at 10^-5 M incubated for 48 hrs by sulforhodamine B assay relative to control; settings: read-out: Activity
SF-268 = assay: Antiproliferative activity against human SF268 cells assessed as cell viability at 10^-5 M incubated for 48 hrs by sulforhodamine B assay relative to control; settings: SF-268, 48 h, read-out: Activity
OVCAR-8 = assay: Antiproliferative activity against human OVCAR8 cells assessed as cell viability at 10^-5 M incubated for 48 hrs by sulforhodamine B assay relative to control; settings: OVCAR-8, 48 h, read-out: Activity
NCI-H522 = assay: Antiproliferative activity against human NCI-H522 cells assessed as cell viability at 10^-5 M incubated for 48 hrs by sulforhodamine B assay relative to control; settings: NCI-H522, 48 h, read-out: Activity
HOP-62 = assay: Antiproliferative activity against human HOP62 cells assessed as cell viability at 10^-5 M incubated for 48 hrs by sulforhodamine B assay relative to control; settings: HOP-62, 48 h, read-out: Activity
KM12 = assay: Antiproliferative activity against human KM12 cells assessed as cell viability at 10^-5 M incubated for 48 hrs by sulforhodamine B assay relative to control; settings: KM12, 48 h, read-out: Activity
NCI-H23 = assay: Antiproliferative activity against human NCI-H23 cells assessed as cell viability at 10^-5 M incubated for 48 hrs by sulforhodamine B assay relative to control; settings: NCI-H23, 48 h, read-out: Activity

Row | SMILES | viability at 10 µM (NCI-H226) [%] | viability at 10 µM (UACC-257) [%] | viability at 10 µM (SK-MEL-28) [%] | viability at 10 µM (A549) [%] | viability at 10 µM (UACC-62) [%] | viability at 10 µM (NCI-H460) [%] | viability at 10 µM (HCT-15) [%] | viability at 10 µM (Malme-3M) [%] | viability at 10 µM (MDA-MB-468) [%] | viability at 10 µM (IGROV-1) [%] | viability at 10 µM (HL-60(TB)) [%] | viability at 10 µM (MDA-MB-231) [%] | viability at 10 µM (SNB-19) [%] | viability at 10 µM (RPMI-8226) [%] | viability at 10 µM (786-0) [%] | viability at 10 µM (SR) [%] | viability at 10 µM (HCT-116) [%] | viability at 10 µM (DU-145) [%] | viability at 10 µM (EKVX) [%] | viability at 10 µM (BT-549) [%] | also measured
1 | CCOc1cc2c(cc1OCC)C1CC(O)C(O)C(O)C1NC2=O (racemic) | 97.8 | 97.5 | 110 | 101 | 96.1 | 111 | 101 | 102 | 94.2 | 107 | 94.5 | 103 | 105 | 102 | 98.9 | 91.2 | 96.3 | 106 | 102 | 101 | viability at 10 µM (U-251): 106%; viability at 10 µM (CCRF-CEM): 102%; viability at 10 µM (SF-268): 97.9%; viability at 10 µM (OVCAR-8): 97.9%; viability at 10 µM (NCI-H522): 89.5%; viability at 10 µM (HOP-62): 99.2%; viability at 10 µM (KM12): 104%; viability at 10 µM (NCI-H23): 96.1%
2 | CCOc1cc2c(c(OCC)c1OCC)C(=O)NC1C2CC(O)C(O)C1O (racemic) | 96.3 | 101 | 107 | 95.8 | 101 | 109 | 104 | 112 | 107 | 108 | 96.1 | 121 | 104 | 102 | 97.9 | 96.2 | 101 | 113 | 97.3 | 108 | viability at 10 µM (U-251): 101%; viability at 10 µM (CCRF-CEM): 99.1%; viability at 10 µM (SF-268): 99.5%; viability at 10 µM (OVCAR-8): 102%; viability at 10 µM (NCI-H522): 89.2%; viability at 10 µM (HOP-62): 102%; viability at 10 µM (KM12): 103%; viability at 10 µM (NCI-H23): 101%
3 | CCOc1c(OC)cc2c(c1O)C(=O)NC1C2CC(O)C(O)C1O (racemic) | 99.8 | 100 | 105 | 94.7 | 93.1 | 112 | 102 | 102 | 94.9 | 102 | 100 | 106 | 99 | 103 | 102 | 89.2 | 104 | 109 | 98 | 99.6 | viability at 10 µM (U-251): 96.7%; viability at 10 µM (CCRF-CEM): 103%; viability at 10 µM (SF-268): 102%; viability at 10 µM (OVCAR-8): 101%; viability at 10 µM (NCI-H522): 92.3%; viability at 10 µM (HOP-62): 98.6%; viability at 10 µM (KM12): 104%; viability at 10 µM (NCI-H23): 107%
